Legend:
[1] = tested on: prostaglandin biosynthesis in vivo; experiment: Rat Carrageenan Pleural Inflammation (CIP) Model; details: 10 mg/kg oral, 30 minutes prior to intrapleural carrageenan, lavage four hours later
Protocol: For oral administration, test compounds were suspended on the day of use in 100% polyethyleneglycol (PEG 400) with a motorized homogenizer equipped with a Teflon-coated pestle (TRI-R Instrument, Jamaica, N.Y.).
(§1) To compare the mean responses of the treatment groups, analysis of variance was applied. Percent inhibition values were determined by comparing the individual treatment mean values to the mean of the control group. Linear regression was used to estimate IC50's/ED50's in appropriate assays.
(§2) EIA reagents for prostaglandin determination were purchased from Perseptive Diagnostics, (Cambridge, Mass.). Prostaglandin E2 (PGE2) levels in lavage fluids were determined after the samples were dried under nitrogen and reconstituted with assay buffer. PGE2 levels in enzyme assays or cell culture media were measured against standards prepared in the same milieu. The immunoassays were conducted as recommended by the manufacturer. The EIA was conducted in 96 well microtiter plates (Nunc Roskilde, Denmark) and optical density was measured using a microplate reader (Vmax, Molecular Devices Corp., Menlo Park, Calif.).
Pleural inflammation was induced in male adrenalectomized Sprague-Dawley rats following the method of Vinegar et al., Fed. Proc. 1976, 35, 2447-2456. […] Eicosanoids were determined by EIA as described above. […]

[2] = molecular target: T1, recombinant human Cox-1 (r-hu Cox-1, PGHS-1) (Homo sapiens, UniProt P23219); experiment: Recombinant human PGHS-1 (r-hu Cox-1) enzyme assay, PGE2 by EIA; format: biochemical; details: at 100 μM; read-out: r-hu COX1 percent inhibition
T1 construct: made in house; host or cells: baculovirus/Sf9 insect cells (microsomes)
T1 sequence (P23219 24-599): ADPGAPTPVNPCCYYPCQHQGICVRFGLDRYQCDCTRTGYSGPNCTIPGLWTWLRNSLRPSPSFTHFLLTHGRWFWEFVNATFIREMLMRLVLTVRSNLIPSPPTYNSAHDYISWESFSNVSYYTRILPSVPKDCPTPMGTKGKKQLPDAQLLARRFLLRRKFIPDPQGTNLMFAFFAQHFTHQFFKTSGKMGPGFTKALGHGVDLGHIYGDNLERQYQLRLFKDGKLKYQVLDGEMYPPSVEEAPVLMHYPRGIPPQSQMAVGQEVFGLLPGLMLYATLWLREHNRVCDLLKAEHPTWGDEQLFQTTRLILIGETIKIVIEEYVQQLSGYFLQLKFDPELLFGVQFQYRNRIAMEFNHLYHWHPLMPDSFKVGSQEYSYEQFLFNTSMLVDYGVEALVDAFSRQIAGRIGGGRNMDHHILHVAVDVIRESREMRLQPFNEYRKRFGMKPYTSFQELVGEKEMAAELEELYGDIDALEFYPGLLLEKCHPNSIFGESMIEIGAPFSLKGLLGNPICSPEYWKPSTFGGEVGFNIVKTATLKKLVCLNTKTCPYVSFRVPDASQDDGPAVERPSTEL
Protocol: as §1, §2
(§3) Inhibition of prostaglandin biosynthesis in vitro was evaluated using recombinant human Cox-1 (r-hu Cox-1) and Cox-2 (r-hu Cox-2) enzyme assays. […] The reaction was allowed to run for 2.5 minutes at room temperature prior to quenching with HCl and neutralization with NaOH. PGE2 production in the presence and absence of the drug was determined by EIA analysis. The EIA was conducted in 96 well microtiter plates (Nunc Roskilde, Denmark) and optical density was measured using a microplate reader (Vmax, Molecular Devices Corp., Menlo Park, Calif.). EIA reagent for prostaglandin determination were purchased from Perseptive Diagnostics (Cambridge, Mass.). PGE2 levels were measured against standards prepared in the same milieu. The immunoassays were conducted as recommended by the manufacturer.
(§4) The compounds are designated by the Example Number. […] Values for Cox-2 inhibition that are parenthetical indicate IC50 values.

[3] = molecular target: T2, recombinant human Cox-2 (r-hu Cox-2, PGHS-2) (Homo sapiens, UniProt P35354); experiment: Recombinant human PGHS-2 (r-hu Cox-2) enzyme assay, PGE2 by EIA; format: biochemical; details: read-out: r-hu COX2 percent inhibition
T2 construct: made in house; host or cells: baculovirus/Sf9 insect cells (microsomes)
T2 sequence (P35354 18-604): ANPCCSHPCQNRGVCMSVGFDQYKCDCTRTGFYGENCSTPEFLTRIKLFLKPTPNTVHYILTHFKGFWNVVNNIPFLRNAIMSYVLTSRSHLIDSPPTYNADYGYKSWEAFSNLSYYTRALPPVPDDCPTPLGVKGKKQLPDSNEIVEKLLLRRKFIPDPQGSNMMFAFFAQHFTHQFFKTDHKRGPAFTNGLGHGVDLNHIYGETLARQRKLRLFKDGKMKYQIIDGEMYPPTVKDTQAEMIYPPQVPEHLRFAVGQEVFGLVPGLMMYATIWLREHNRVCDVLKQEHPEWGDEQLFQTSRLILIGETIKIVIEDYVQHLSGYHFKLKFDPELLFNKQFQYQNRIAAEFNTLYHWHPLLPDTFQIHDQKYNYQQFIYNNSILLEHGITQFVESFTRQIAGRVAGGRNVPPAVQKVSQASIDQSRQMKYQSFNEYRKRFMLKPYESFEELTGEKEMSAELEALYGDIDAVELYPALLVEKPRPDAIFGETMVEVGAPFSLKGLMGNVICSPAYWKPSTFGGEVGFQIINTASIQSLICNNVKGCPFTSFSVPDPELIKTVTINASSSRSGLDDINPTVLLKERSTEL
Protocol: as §1, §2, §3, §4

[4] = tested on: IL-1β induced PGE2 production in human amnionic WISH cells; experiment: IL-1β Induced PGE2 Production in WISH Cells; format: cell-based; details: Homo sapiens, IL-1β 18 hour, read-out: WISH percent inhibition
Protocol: as §2
Human amnionic WISH cells were grown to 80% confluence in 48 well plates. Following removal of the growth medium and two washings with Gey's Balanced Salt Solution, 5 ng IL-1β/ml (UBI, Lake Placid, N.Y.) was added to the cells with or without test compound in DMSO (0.01% v/v) in Neuman-Tytell Serumless Medium (GIBCO, Grand Island, N.Y.). Following an 18 hour incubation to allow for the maximal induction of PGHS-2, the conditioned medium was removed and assayed for PGE2 content by EIA anylysis as described above.
WISH cell values indicate percent inhibition at the particular dose level.

Row | SMILES | inhibition at 100 µM [2] [%] | melting point [°C] | CIP Inh @ 10 mpk [1] [%] | also measured
1 | CC(C)(C)C(=O)COc1nn(CC=C(Cl)Cl)c(-c2ccc(S(C)(=O)=O)cc2)c1-c1ccc(F)cc1 [Example 26, 1-{[1-(3,3-Dichloroallyl)-4-(4-fluorophenyl)-5-(4-(methylsulphonyl)phenyl)-1H-pyrazol-3-yl]oxy}-3,3-dimethylbutan-2-one] |  | 156 to 158 |  | inhibition at 0.0001 µM ([4]; at 0.1 (nM)): 64%
2 | CC(=O)n1nc(OCC(=O)C(C)(C)C)c(-c2ccccc2)c1-c1ccc(S(C)(=O)=O)cc1 [Example 32, 1-[(1-Acetyl-5-(4-(methylsulphonyl)phenyl)-4-phenyl-1H-pyrazol-3-yl)oxy]-3,3-dimethylbutan-2-one] |  | 189 to 191 |  | inhibition at 10 pM ([4]; at 0.01 (nM)): 47%
3 | CCn1nc(OCC(=O)C(C)(C)C)c(-c2ccccc2)c1-c1ccc(S(C)(=O)=O)cc1 [Example 33, 1-[(1-Ethyl-5-(4-(methylsulphonyl)phenyl)-4-phenyl-1H-pyrazol-3-yl)oxy]-3,3-dimethylbutan-2-one] |  | 158 to 161 |  | inhibition at 1 pM ([4]; at 0.001 (nM)): 78%
4 | CCn1nc(OC2COCCC2=O)c(-c2ccc(F)cc2)c1-c1ccc(S(C)(=O)=O)cc1 (centres unmarked) [Example 23, 3-[(1-Ethyl-4-(4-fluorophenyl)-5-(4-(methylsulphonyl)phenyl)-1H-pyrazol-3-yl)oxy]tetrahydro-4H-pyran-4-one] | 27 | 181 to 182 |  | inhibition at 10 µM ([3]; at 10000 nM): 43%; inhibition at 0.001 µM ([4]; at 1 (nM)): 80%

Second part, led by results:

Row | inhibition at 100 µM [2] [%] | melting point [°C] | SMILES | CIP Inh @ 10 mpk [1] [%] | also measured
5 | 17 | 194 to 196 | CS(=O)(=O)c1ccc(-c2c(-c3ccc(F)cc3)c(OCC(=O)c3ccc(F)cc3)nn2CC(=O)c2ccc(F)cc2)cc1 [Example 13, 2-[4-(4-Fluorophenyl)-5-(4-(methylsulphonyl)phenyl)-3-(2-oxo-2-(4-fluorophenyl)ethoxy)-1H-pyrazol-1-yl]-1-(4-fluorophenyl)ethan-1-one] | 22 | inhibition at 0.1 µM ([3]; at 100 nM): 90%
6 | 0 | 151 to 152 | CS(=O)(=O)c1ccc(-c2c(-c3ccc(F)cc3)c(OCC(=O)c3ccccc3)nn2CC(=O)c2ccccc2)cc1 [Example 12, 2-[4-(4-Fluorophenyl)-5-(4-(methylsulphonyl)phenyl)-3-(2-oxo-2-phenylethoxy)-1H-pyrazol-1-yl]-1-phenylethan-1-one] | 38 | 
